Tests used:
OleA [1] = biological target: T1, OleA (Xanthomonas campestris pv. campestris, UniProt Q8PDX2); assay: GC-MS/GC-FID product analysis of OleA reactions with acyl-CoA substrates; assay type: biochemical; conditions: peak area integration
T1 construct: His-tag (N); made in house; host or cells: E. coli One Shot BL21 (DE3), pET28b+
Description: Subsequent experiments were conducted to examine if coenzyme A was formed as a consequence of acyl-group condensation, thioester bond hydrolysis, or some mixture of the two reactions. Based on previous observations (Beller et al. 2010. Appl. Environ. Microbiol. 76:1212-1223; Sukovich et al. 2010. Appl. Environ. Microbiol. 76:3850-62; Friedman et al. 2008. International Patent WO2008/113041), it was known that long-chain ketones were the observed condensation products. In subsequent experiments in this study, it was shown that β-keto acids are the initial products and those decarboxylate quantitatively to the corresponding ketone. In this context, reaction mixtures were solvent extracted and subjected to GC-MS to identify ketones derived from condensation and/or fatty acids derived from acyl chain hydrolysis.
In this context, experiments were conducted with mixtures of fatty acyl-CoA substrates. All pairwise combinations of C10, C12, C14, C16, saturated and C16 monounsaturated (C16:1) acyl-CoA substrates were incubated, extracted, and analyzed for products by GC-MS and GC-FID. In all, 15 product mixtures were analyzed. […] Only with C12 acyl condensation and C14 plus C16:1 condensation were the major products derived from a condensation of fatty acyl chains. In the case of C14 condensations (myristoyl-CoA), the ketone 14-heptacosanone was produced at only slightly lower levels than the hydrolysis product myristic acid.

OleA [2] = biological target: T1, OleA; assay: Release of CoASH thiol (DTNB) for assay of OleA substrate range; assay type: biochemical; conditions: for reaction with OleA to release coenzyme A: incubation time in which palmitoyl-CoA reacts completely; for % of Theoretical / CoA Product: starting substrate 65 μM; for % of Theoretical: 65 μM of product is 100% of theoretical yield; for CoA Product: free coenzyme A detected with DTNB, average of triplicate determinations with standard error; for reaction stoichiometry, coenzyme A released per acyl-CoA consumed: substrate allowed to completely react
Description: Detecting the Release of CoASH Thiol for Assay of OleA Substrate Range. Release of the free thiol group of CoASH was detected by the addition of 5,5′-dithio-bis-(2-nitrobenzoic acid) (DTNB) measured spectrophotometrically at 412 nm (ε412=13,600 M^−1 cm^−1) (Alexson et al. 1988, J. Biol. Chem. 263:13564-13571; Ellman et al. 1958. Arch Biochem. Biophys. 74:443-450). […] DTNB was incubated with the reaction for 2 min and quantified spectrophotometrically.
Initial Defining of Substrate Specificity and Reaction Products of OleA. Enzymes catalyzing condensation or hydrolysis reactions with acyl-CoA substrates release coenzyme A that can be assayed colorimetrically using DTNB (Alexson et al. 1988. J. Biol. Chem. 263:13564-13571; Skaff et al. 2010. Anal. Biochem. 396:288-296; Sleeman et al. 2004. J. Biol. Chem. 279:6730-6736; Yashiro et al. 1995. Biochim. Biophys. 1258:288-96). […] With purified OleA, DTNB was used to determine the stoichiometry of coenzyme A formation and to begin to discern the substrate specificity of OleA.
First, the coenzyme A product stoichiometry was determined using either myristoyl-CoA or palmitoyl-CoA and allowing the substrate to completely react. With either substrate, the reaction stoichiometry was 1.0 mole of coenzyme A released for each mole of acyl-CoA consumed. In this manner, acyl-CoA chains of different lengths were tested with OleA using a time of incubation in which palmitoyl-CoA reacts completely as described in the Methods section. Under those conditions (Table III-2) palmitoyl-CoA reacted more completely than myristoyl-CoA.

OleA, OleC and OleD = biological target: T2, OleA, OleC and OleD (Xanthomonas campestris pv. campestris, UniProt Q8PDX2); assay: Hydrocarbon detection enzyme assay, OleA, OleC and OleD; assay type: biochemical; conditions: substrate incubated with OleA
T2 construct: His-tag (N); made in house
T2 sequence (Q8PDX2 1-338): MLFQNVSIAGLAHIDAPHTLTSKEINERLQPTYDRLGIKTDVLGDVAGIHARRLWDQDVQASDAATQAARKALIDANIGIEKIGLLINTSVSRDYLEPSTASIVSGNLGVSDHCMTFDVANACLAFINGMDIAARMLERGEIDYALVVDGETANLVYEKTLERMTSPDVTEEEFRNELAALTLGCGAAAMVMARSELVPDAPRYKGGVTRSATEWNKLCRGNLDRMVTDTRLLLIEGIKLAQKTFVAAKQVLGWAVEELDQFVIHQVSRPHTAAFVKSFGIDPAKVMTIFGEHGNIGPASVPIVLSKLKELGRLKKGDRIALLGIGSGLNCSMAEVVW
Description: (§1) Hydrocarbon Detection Enzyme Assay. […] Products were extracted with 250 μl ethyl acetate using 16-hentriacontanone ketone (Tokyo Kasei Kogyo Co., Ltd., Japan) as an internal standard. After vortexing and 5 min of gentle centrifugation, the top solvent layer was transferred to a glass vial and analyzed using a gas chromatograph equipped with a flame ionization detector HP 7890A (Hewlett Packard, Palo Alto) and mass spectrometer HP 5975C (GC-MS-FID). GC was conducted under the following conditions: helium gas, 1.75 ml/min; HP-1 ms column (100% dimethylsiloxane capillary; 30 m by 250 μm by 0.25 μm); temperature ramp, 100° C. to 320° C.; 10° C./min, hold at 320° C. for 5 min, 250° C. injection port, and split at the outlet between MS and FID. The mass spectrometer was run under the following conditions: electron impact at 70 eV and 35 μA. The flame ionization detector was set at 250° C. with hydrogen flow set at 30 ml/min, air set at 400 ml/min, and helium makeup gas set at 25 ml/min.
(§2) Role of OleA in olefin biosynthesis. […] Other Ole proteins were purified as described in the methods section and tested in admixture with OleA and with myristoyl-CoA as the substrate. […] The identities of the products were confirmed by mass spectrometry.

OleA and OleC = biological target: T3, OleA and OleC (Xanthomonas campestris pv. campestris, UniProt Q8PDX2); assay: Hydrocarbon detection enzyme assay, OleA and OleC in admixture; assay type: biochemical; conditions: substrate incubated with OleA and OleC
T3 construct: His-tag (N); made in house; host or cells: E. coli (OleA)
T3 sequence (Q8PDX2 1-338): T2 sequence (Q8PDX2 1-338)
Description: as §1, §2

Synechococcus [3] = assay: Growth in BG11AN medium supplemented with lactic acid; assay type: cell-based
Text: To maintain the co-culture of the cyanobacterium (Synechococcus) and the heterotroph (Shewanella), a minimal medium was established that would support growth of both Shewanella and Synechococcus. We started with the preferred medium for Synechococcus, known as BG11. […] A modified Synechococcus minimal medium, denoted here as BG11AN medium, was used and supplemented with lactic acid to test both lactate inhibition and ammonia inhibition. BG11AN has ammonium nitrate at 1.5 g/L replacing the sodium nitrate used in BG11. Shewanella grew well in BG11AN medium. The Synechococcus grew in the BG11AN medium, not as well as in BG11, but acceptably. The cultures in BG11 AN were more of a yellow green than the deep green of the BG11 culture. […] In fact, it stimulated growth at levels up to 0.5 g/L. It was concluded that the BG11AN medium can be used for co-culture of Synechococcus and Shewanella in subsequent experiments.

Synechococcus [4] = assay: Effect of growth supplements of the type found in corn steep liquor on Synechococcus; assay type: cell-based; conditions: flasks supplemented
Description: The effects of growth supplements of the type found in corn steep liquor on the growth of Synechococcus and Shewanella were examined.

OleC and OleD = biological target: T4, OleC and OleD (Xanthomonas campestris pv. campestris, UniProt Q8PDW5); assay: Hydrocarbon detection enzyme assay, OleC and OleD without OleA; assay type: biochemical; conditions: substrate incubated with OleC and OleD
T4 construct: His6-tag with thrombin site (implied by Ni-column purification); made in house; host or cells: E. coli One Shot BL21 (DE3) for OleD
T4 sequence (Q8PDW5 2-337, added parts left off): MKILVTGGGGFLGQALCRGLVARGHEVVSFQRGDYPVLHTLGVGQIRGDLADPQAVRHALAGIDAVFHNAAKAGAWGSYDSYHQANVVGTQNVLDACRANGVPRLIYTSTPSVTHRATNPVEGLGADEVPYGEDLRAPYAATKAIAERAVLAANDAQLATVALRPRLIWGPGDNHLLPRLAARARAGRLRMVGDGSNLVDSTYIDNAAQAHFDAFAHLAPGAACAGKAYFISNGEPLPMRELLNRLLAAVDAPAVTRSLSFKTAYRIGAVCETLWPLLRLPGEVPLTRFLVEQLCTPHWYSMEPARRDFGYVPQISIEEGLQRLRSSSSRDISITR
Description: as §1
The identity of the compound was confirmed by the mass spectrum shown above the GC chromatogram in FIG. III-6A, with the major ion, m/z 378, representing the molecular ion.
Next, it was tested if the ketone 14-heptacosanone could also give rise to 14-heptacosene or any other discernible product.

[5] = Spontaneous decarboxylation of synthetic beta-keto acid; conditions: synthetic acid from hydrogenolysis of the benzyl ester, no enzyme

CCCCCC/C=C\CCCCCCCC(=O)SCCNC(=O)CCNC(=O)[C@H](O)C(C)(C)COP(=O)(O)OP(=O)(O)OC[C@H]1O[C@@H](n2cnc3c(N)ncnc32)[C@H](O)[C@@H]1OP(=O)(O)O [Palmitoleoyl-CoA]
Products, ketones (Cx) and fatty acids (FAx), in order of decreasing abundance (OleA [1]; second fatty acyl-CoA chain C16:1): FA16:1 > C31:2
reaction with OleA to release coenzyme A (OleA [2]): undergo reaction to release coenzyme A
% of Theoretical (OleA [2]): 57%
CoA Product (OleA [2]): 36.9 ± 0.9 µM

CCCCCCCC(=O)SCCNC(=O)CCNC(=O)[C@H](O)C(C)(C)COP(=O)(O)OP(=O)(O)OC[C@H]1O[C@@H](n2cnc3c(N)ncnc32)[C@H](O)[C@@H]1OP(=O)(O)O [Octanoyl-CoA]
reaction with OleA to release coenzyme A (OleA [2]): undergo reaction to release coenzyme A
% of Theoretical (OleA [2]): 12%
CoA Product (OleA [2]): 8.0 ± 2.2 µM

CCCCCCCCCCCCCCCCCC(=O)SCCNC(=O)CCNC(=O)[C@H](O)C(C)(C)COP(=O)(O)OP(=O)(O)OC[C@H]1O[C@@H](n2cnc3c(N)ncnc32)[C@H](O)[C@@H]1OP(=O)(O)O [Stearoyl-CoA]
reaction with OleA to release coenzyme A (OleA [2]): undergo reaction to release coenzyme A
% of Theoretical (OleA [2]): 29%
CoA Product (OleA [2]): 18.7 ± 1.8 µM

CCCCCCCCCCCCCC(=O)SCCNC(=O)CCNC(=O)[C@H](O)C(C)(C)COP(=O)(O)OP(=O)(O)OC[C@H]1O[C@@H](n2cnc3c(N)ncnc32)[C@H](O)[C@@H]1OP(=O)(O)O [Myristoyl-CoA]
Products, ketones (Cx) and fatty acids (FAx), in order of decreasing abundance (OleA [1]; second fatty acyl-CoA chain C14): FA14 > C27
products observed by GC-MS (OleA, OleC and OleD): the olefin 14-heptacosene (20.4 min) was observed in addition to the peak corresponding to 14-heptacosanone
% of Theoretical (OleA [2]): 97%
CoA Product (OleA [2]): 63.2 ± 0.4 µM
reaction stoichiometry, coenzyme A released per acyl-CoA consumed (OleA [2]): 1.0 mole of coenzyme A released for each mole of acyl-CoA consumed
products observed by GC-MS (OleA and OleC): produced only 14-heptacosanone

CC(O)C(=O)O (centres unmarked) [Lactic acid]
level at which growth was not inhibited (Synechococcus [3]): ≤ 1 g/L
level at which growth was stimulated (Synechococcus [3]): up to 0.5 g/L

N[C@@H](CCC(=O)O)C(=O)O [glutamate]
effect on growth of Synechococcus (Synechococcus [4]): slightly better growth

CC(=O)SCCNC(=O)CCNC(=O)[C@H](O)C(C)(C)COP(=O)(O)OP(=O)(O)OC[C@H]1O[C@@H](n2cnc3c(N)ncnc32)[C@H](O)[C@@H]1OP(=O)(O)O [Acetyl-CoA]
reaction with OleA to release coenzyme A (OleA [2]): did not

NC(=O)CC[C@H](N)C(=O)O [glutamine]
effect on growth of Synechococcus (Synechococcus [4]): slightly better growth

CCCCCCCCCCCCCC(=O)C(CCCCCCCCCCCC)C(=O)O (racemic) [2-myristoylmyristic acid]
products observed by GC-MS (OleC and OleD): yielded 14-heptacosanone and the expected olefinic product from head-to-head condensation, 14-heptacosene
stability, decarboxylation to 14-heptacosanone [5]: rapid decarboxylation

CCCCCCCCCCCC(=O)SCCNC(=O)CCNC(=O)[C@H](O)C(C)(C)COP(=O)(O)OP(=O)(O)OC[C@H]1O[C@@H](n2cnc3c(N)ncnc32)[C@H](O)[C@@H]1OP(=O)(O)O [Lauroyl-CoA]
reaction with OleA to release coenzyme A (OleA [2]): undergo reaction to release coenzyme A
% of Theoretical (OleA [2]): 79%
CoA Product (OleA [2]): 51.4 ± 1.9 µM

CCCCCCCCCCCCCCCC(=O)SCCNC(=O)CCNC(=O)[C@H](O)C(C)(C)COP(=O)(O)OP(=O)(O)OC[C@H]1O[C@@H](n2cnc3c(N)ncnc32)[C@H](O)[C@@H]1OP(=O)(O)O [Palmitoyl-CoA]
Products, ketones (Cx) and fatty acids (FAx), in order of decreasing abundance (OleA [1]; second fatty acyl-CoA chain C16): FA16 > C31
% of Theoretical (OleA [2]): 100%
CoA Product (OleA [2]): 65.0 ± 0.9 µM
reaction stoichiometry, coenzyme A released per acyl-CoA consumed (OleA [2]): 1.0 mole of coenzyme A released for each mole of acyl-CoA consumed

CCCCCCCCCCCCCC(=O)CCCCCCCCCCCCC [14-heptacosanone]
products observed by GC-MS (OleC and OleD): 14-heptacosene was not detected

CCCCCCCCCC(=O)SCCNC(=O)CCNC(=O)[C@H](O)C(C)(C)COP(=O)(O)OP(=O)(O)OC[C@H]1O[C@@H](n2cnc3c(N)ncnc32)[C@H](O)[C@@H]1OP(=O)(O)O [Decanoyl-CoA]
Products, ketones (Cx) and fatty acids (FAx), in order of decreasing abundance (OleA [1]; second fatty acyl-CoA chain C10): FA10 > C19
reaction with OleA to release coenzyme A (OleA [2]): undergo reaction to release coenzyme A
% of Theoretical (OleA [2]): 42%
CoA Product (OleA [2]): 27.2 ± 1.6 µM
